Measured values: US11434242B2, “Dopamine-b-hydroxylase inhibitors” (BIAL-PORTELA & Cª, S.A., priority 2017, dated 2022)

Molecular target: T1, Dopamine beta hydroxylase (Homo sapiens, UniProt P09172)
T1 construct: 125 μl of plasma; tissue Instituto Português do Sangue Transplantação; host or cells: human plasma from healthy donors
T1 sequence (P09172 40-617 limits assumed): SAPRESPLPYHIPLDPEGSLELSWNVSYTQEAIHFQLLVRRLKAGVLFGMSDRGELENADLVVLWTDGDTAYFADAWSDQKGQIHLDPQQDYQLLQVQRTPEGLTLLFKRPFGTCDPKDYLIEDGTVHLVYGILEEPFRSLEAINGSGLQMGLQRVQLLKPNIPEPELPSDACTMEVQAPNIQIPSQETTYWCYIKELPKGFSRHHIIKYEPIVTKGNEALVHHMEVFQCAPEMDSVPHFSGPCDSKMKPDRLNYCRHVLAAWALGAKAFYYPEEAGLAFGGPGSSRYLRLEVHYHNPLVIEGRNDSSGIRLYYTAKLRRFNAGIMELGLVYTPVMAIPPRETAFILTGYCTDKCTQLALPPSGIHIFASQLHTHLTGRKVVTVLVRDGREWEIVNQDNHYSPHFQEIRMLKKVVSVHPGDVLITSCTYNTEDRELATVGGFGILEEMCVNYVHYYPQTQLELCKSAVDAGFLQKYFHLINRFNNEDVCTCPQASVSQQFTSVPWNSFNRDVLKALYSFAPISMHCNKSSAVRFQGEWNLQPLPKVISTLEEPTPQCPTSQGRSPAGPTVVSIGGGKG
Assay: Dopamine beta hydroxylase activity in human plasma
Format: biochemical
Conditions: for Plasma (0.1 μM), activity in % of control: inhibitor 0.1 μM; for Plasma (1 μM), activity in % of control: inhibitor 1 μM; for Plasma (0.01 μM), activity in % of control: inhibitor 0.01 μM
Outline: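 Octopamine production from tyramine over 45 min at 37° C, measured photometrically at 330 nm after SCX extraction and periodate oxidation against an octopamine standard curve, indicates plasma DβH activity. Compounds tested at final 10, 100 and 1000 nM in human plasma, pH 5.0 cofactor buffer, 10 min preincubation; results as % of control.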

| SMILES | Plasma (0.1 μM), activity in % of control | Plasma (1 μM), activity in % of control | Plasma (0.01 μM), activity in % of control |
| --- | --- | --- | --- |
| O=C(Cc1[nH]c(=S)n2c1C[C@H](c1c(F)c(F)cc(F)c1F)C2)N1CCCC1 [Example 104, (R)-1-(pyrrolidin-1-yl)-2-(6-(2,3,5,6-tetrafluorophenyl)-3-thioxo-2,5,6,7-tetrahydro-3H-pyrrolo[1,2-c]imidazol-1-yl)ethan-1-one] | 67.9 % of control | 19.5 % of control | – |
| O=C(Cc1[nH]c(=S)n2c1C[C@@H](c1c(F)c(F)cc(F)c1F)C2)N1CCCC1 [Example 105, (S)-1-(pyrrolidin-1-yl)-2-(6-(2,3,5,6-tetrafluorophenyl)-3-thioxo-2,5,6,7-tetrahydro-3H-pyrrolo[1,2-c]imidazol-1-yl)ethan-1-one] | 74.9 % of control | 22.0 % of control | – |
| Cl.O=C(Cc1[nH]c(=S)n2c1C[C@@H](c1c(F)ccc(Cl)c1F)C2)NCCc1ccccn1 [Example 106, (S)-2-(6-(3-chloro-2,6-difluorophenyl)-3-thioxo-2,5,6,7-tetrahydro-3H-pyrrolo[1,2-c]imidazol-1-yl)-N-(2-(pyridin-2-yl)ethyl)acetamide hydrochloride] | 33.9 % of control | 4.1 % of control | – |
| COCCNC(=O)Cc1[nH]c(=S)n2c1C[C@@H](c1c(F)ccc(Cl)c1F)C2 [Example 107, (S)-2-(6-(3-chloro-2,6-difluorophenyl)-3-thioxo-2,5,6,7-tetrahydro-3H-pyrrolo[1,2-c]imidazol-1-yl)-N-(2-methoxyethyl)acetamide] | 40.1 % of control | 6.3 % of control | – |
| NC(=O)Cc1[nH]c(=S)n2c1C[C@@H](c1c(F)ccc(Cl)c1F)C2 [Example 108, (S)-2-(6-(3-chloro-2,6-difluorophenyl)-3-thioxo-2,5,6,7-tetrahydro-3H-pyrrolo[1,2-c]imidazol-1-yl)acetamide] | 46.9 % of control | 5.3 % of control | – |
| Cl.O=C(Cc1[nH]c(=S)n2c1C[C@@H](c1c(F)ccc(Cl)c1F)C2)NCc1cccnc1 [Example 109, (S)-2-(6-(3-chloro-2,6-difluorophenyl)-3-thioxo-2,5,6,7-tetrahydro-3H-pyrrolo[1,2-c]imidazol-1-yl)-N-(pyridin-3-ylmethyl)acetamide Hydrochloride] | 5.4 % of control | 1.5 % of control | – |
| O=C(Cc1[nH]c(=S)n2c1C[C@@H](c1c(F)ccc(Cl)c1F)C2)N1CCCC1 [Example 110, (S)-2-(6-(3-chloro-2,6-difluorophenyl)-3-thioxo-2,5,6,7-tetrahydro-3H-pyrrolo[1,2-c]imidazol-1-yl)-1-(pyrrolidin-1-yl)ethan-1-one] | 52.4 % of control | 9.7 % of control | – |
| O=C(Cc1[nH]c(=S)n2c1C[C@@H](c1c(F)ccc(Cl)c1F)C2)N1CCC(F)(F)CC1 [Example 111, (S)-2-(6-(3-chloro-2,6-difluorophenyl)-3-thioxo-2,5,6,7-tetrahydro-3H-pyrrolo[1,2-c]imidazol-1-yl)-1-(4,4-difluoropiperidin-1-yl)ethan-1-one] | 36.7 % of control | – | 89.6 % of control |
| O=C(Cc1[nH]c(=S)n2c1C[C@@H](c1c(F)ccc(Cl)c1F)C2)NC1CCS(=O)(=O)CC1 [Example 112, (S)-2-(6-(3-chloro-2,6-difluorophenyl)-3-thioxo-2,5,6,7-tetrahydro-3H-pyrrolo[1,2-c]imidazol-1-yl)-N-(1,1-dioxidotetrahydro-2H-thiopyran-4-yl)acetamide] | 0 % of control | – | 9.9 % of control |
| O=C(Cc1[nH]c(=S)n2c1C[C@@H](c1c(F)ccc(Cl)c1F)C2)NCC(F)(F)F [Example 113, (S)-2-(6-(3-chloro-2,6-difluorophenyl)-3-thioxo-2,5,6,7-tetrahydro-3H-pyrrolo[1,2-c]imidazol-1-yl)-N-(2,2,2-trifluoroethyl)acetamide] | 25.6 % of control | – | 85.1 % of control |
| CS(=O)(=O)CCNC(=O)Cc1[nH]c(=S)n2c1C[C@@H](c1c(F)ccc(Cl)c1F)C2 [Example 114, (S)-2-(6-(3-chloro-2,6-difluorophenyl)-3-thioxo-2,5,6,7-tetrahydro-3H-pyrrolo[1,2-c]imidazol-1-yl)-N-(2-(methylsulfonyl)ethyl)acetamide] | 7.5 % of control | – | 58.4 % of control |
| Cl.O=C(Cc1[nH]c(=S)n2c1C[C@@H](c1c(F)ccc(Cl)c1F)C2)NCCN1CCC(F)(F)CC1 [Example 115, (S)-2-(6-(3-chloro-2,6-difluorophenyl)-3-thioxo-2,5,6,7-tetrahydro-3H-pyrrolo[1,2-c]imidazol-1-yl)-N-(2-(4,4-difluoropiperidin-1-yl)ethyl)acetamide Hydrochloride] | 0 % of control | – | 48.0 % of control |
| O=C(Cc1[nH]c(=S)n2c1C[C@H](c1c(F)ccc(Br)c1F)C2)N[C@@H]1CCOC1 [Example 116, 2-((R)-6-(3-bromo-2,6-difluorophenyl)-3-thioxo-2,5,6,7-tetrahydro-3H-pyrrolo[1,2-c]imidazol-1-yl)-N—((R)-tetrahydrofuran-3-yl)acetamide] | 68.8 % of control | – | 93.8 % of control |
| O=C(Cc1[nH]c(=S)n2c1C[C@H](c1c(F)ccc(Br)c1F)C2)N1CCC(F)(F)CC1 [Example 117, (R)-2-(6-(3-bromo-2,6-difluorophenyl)-3-thioxo-2,5,6,7-tetrahydro-3H-pyrrolo[1,2-c]imidazol-1-yl)-1-(4,4-difluoropiperidin-1-yl)ethan-1-one] | 43.0 % of control | – | 74.5 % of control |
| CS(=O)(=O)CCNC(=O)Cc1[nH]c(=S)n2c1C[C@H](c1c(F)ccc(Br)c1F)C2 [Example 118, (R)-2-(6-(3-bromo-2,6-difluorophenyl)-3-thioxo-2,5,6,7-tetrahydro-3H-pyrrolo[1,2-c]imidazol-1-yl)-N-(2-(methylsulfonyl)ethyl)acetamide] | 49.0 % of control | – | 89.2 % of control |
| O=C(Cc1[nH]c(=S)n2c1C[C@H](c1c(F)ccc(Br)c1F)C2)NCCO [Example 119, (R)-2-(6-(3-bromo-2,6-difluorophenyl)-3-thioxo-2,5,6,7-tetrahydro-3H-pyrrolo[1,2-c]imidazol-1-yl)-N-(2-hydroxyethyl)acetamide] | 87.7 % of control | – | 118.2 % of control |
| O=C(Cc1[nH]c(=S)n2c1C[C@H](c1c(F)ccc(Br)c1F)C2)NC1CCCC1CO (stereo partly drawn) [Example 120, 2-((R)-6-(3-bromo-2,6-difluorophenyl)-3-thioxo-2,5,6,7-tetrahydro-3H-pyrrolo[1,2-c]imidazol-1-yl)-N-(2-(hydroxymethyl)cyclopentyl)acetamide] | 86.2 % of control | – | 132.5 % of control |
| O=C(Cc1[nH]c(=S)n2c1C[C@H](c1c(F)ccc(Br)c1F)C2)N1CCCC(O)C1 (stereo partly drawn) [Example 121, 2-((R)-6-(3-bromo-2,6-difluorophenyl)-3-thioxo-2,5,6,7-tetrahydro-3H-pyrrolo[1,2-c]imidazol-1-yl)-1-(3-hydroxypiperidin-1-yl)ethan-1-one] | 62.6 % of control | – | 79.3 % of control |
| CC(C)(C)OC(=O)N1CCC[C@@H]1CNC(=O)Cc1[nH]c(=S)n2c1C[C@@H](c1c(F)ccc(Br)c1F)C2 [Example 122, tert-butyl (R)-2-((2-((S)-6-(3-bromo-2,6-difluorophenyl)-3-thioxo-2,5,6,7-tetrahydro-3H-pyrrolo[1,2-c]imidazol-1-yl)acetamido)methyl)pyrrolidine-1-carboxylate] | 13.0 % of control | – | 70.8 % of control |
| CS(=O)(=O)C1CCN(C(=O)Cc2[nH]c(=S)n3c2C[C@@H](c2c(F)ccc(Br)c2F)C3)CC1 [Example 123, (S)-2-(6-(3-bromo-2,6-difluorophenyl)-3-thioxo-2,5,6,7-tetrahydro-3H-pyrrolo[1,2-c]imidazol-1-yl)-1-(4-(methylsulfonyl)piperidin-1-yl)ethan-1-one] | 6.3 % of control | – | 51.9 % of control |
